From patent US20240294534A1, “IMIDAZOTRIAZINE DERIVATIVES AS IL-17 MODULATORS” (UCB BIOPHARMA SRL, priority 2021, published 2024)

Target: T1, IL-17A (Homo sapiens, UniProt Q16552)
T1 sequence (Q16552 24-155): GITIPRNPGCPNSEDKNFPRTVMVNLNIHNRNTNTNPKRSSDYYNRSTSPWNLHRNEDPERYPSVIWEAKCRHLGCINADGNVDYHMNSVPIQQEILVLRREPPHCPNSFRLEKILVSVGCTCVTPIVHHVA
Experiment: Inhibition of IL-17A induced IL-6 release from dermal fibroblast cell line (HDF cell line assay)
Format: cell-based
Conditions: human dermal fibroblasts stimulated with IL-17A (50 pM) + TNF-α (25 pM); IL-6 measured by HTRF; pIC50 = -log10[IC50], IC50 molar
Description: Inhibition of IL-17A Induced IL-6 Release from Dermal Fibroblast Cell Line
The purpose of this assay is to test the neutralising ability to IL-17 proteins, in a human primary cell system. Stimulation of normal human dermal fibroblasts (HDF) with IL-17 alone produces only a very weak signal but in combination with certain other cytokines, such as TNFα, a synergistic effect can be seen in the production of inflammatory cytokines, i.e. IL-6.
HDFs were stimulated with IL-17A (50 pM) in combination with TNF-α (25 pM). The resultant IL-6 response was then measured using a homogenous time-resolved FRET kit from Cisbio. The kit utilises two monoclonal antibodies, one labelled with Eu-Cryptate (Donor) and the second with d2 or XL665 (Acceptor). The intensity of the signal is proportional to the concentration of IL-6 present in the sample (Ratio is calculated by 665/620×104).
The ability of a compound to inhibit IL-17 induced IL-6 release from human dermal fibroblasts is measured in this assay.
HDF cells (Sigma #106-05n) were cultured in complete media (DMEM+10% FCS+2 mM L-glutamine) and maintained in a tissue culture flask using standard techniques. Cells were harvested from the tissue culture flask on the morning of the assay using TrypLE (Invitrogen #12605036). The TrypLE was neutralised using complete medium (45 mL) and the cells were centrifuged at 300×g for 3 minutes. The cells were re-suspended in complete media (5 mL) counted and adjusted to a concentration of 3.125×10^4 cells/mL before being added to the 384 well assay plate (Corning #3701) at 40 μL per well. The cells were left for a minimum of three hours, at 37° C./5% CO2, to adhere to the plate.
Compounds were serially diluted in DMSO before receiving an aqueous dilution into a 384 well dilution plate (Greiner #781281), where 5 μL from the titration plate was transferred to 45 μL of complete media and mixed to give a solution containing 10% DMSO.
Mixtures of TNFα and IL-17 cytokine were prepared in complete media to final concentrations of TNFα 25 pM/IL-17A 50 pM, then 30 μL of the solution was added to a 384 well reagent plate (Greiner #781281).
10 μL from the aqueous dilution plate was transferred to the reagent plate containing 30 μL of the diluted cytokines, to give a 2.5% DMSO solution. The compounds were incubated with the cytokine mixtures for 5 h at 37° C. After the incubation, 10 μL was transferred to the assay plate, to give a 0.5% DMSO solution, then incubated for 18-20 h at 37° C./5% CO2.
From the Cisbio IL-6 FRET kit (Cisbio #62IL6PEB) europium cryptate and Alexa 665 were diluted in reconstitution buffer and mixed 1:1, as per kit insert. To a white low volume 384 well plate (Greiner #784075) were added FRET reagents (10 μL), then supernatant (10 μL) was transferred from the assay plate to Greiner reagent plate. The mixture was incubated at room temperature for 3 h with gentle shaking (<400 rpm) before being read on a Synergy Neo 2 plate reader (Excitation: 330 nm; Emission: […]).

## Cc1nonc1C(=O)N[C@H](c1cn2ncc([C@@H]3C[C@@](O)(C(F)(F)F)CCN3C(=O)C34CC(F)(C3)C4)nc2n1)C(C1CC1)C1CC1 (single isomer, unassigned) [Example 1]
  IC50: 7.94 nM

## Cc1nonc1C(=O)N[C@H](c1cn2ncc([C@H]3C[C@](O)(C(F)(F)F)CCN3C(=O)C34CC(F)(C3)C4)nc2n1)C(C1CC1)C1CC1 (single isomer, unassigned) [Example 2]
  IC50: 158 nM

## Cc1nonc1C(=O)N[C@H](c1cn2ncc([C@@H]3COCCN3C(=O)C34CC(F)(C3)C4)nc2n1)C1CCC(F)(F)CC1 (single isomer, unassigned) [Example 3]
  IC50: 79.4 nM

## Cc1nonc1C(=O)N[C@H](c1cn2ncc([C@H]3COCCN3C(=O)C34CC(F)(C3)C4)nc2n1)C1CCC(F)(F)CC1 (single isomer, unassigned) [Example 4]
  IC50: 631 nM

## Cc1nonc1C(=O)N[C@H](c1cn2ncc([C@@H]3COCCN3C(=O)[C@@H]3CCC(F)(F)CO3)nc2n1)C(C1CC1)C1CC1 (single isomer, unassigned) [Example 5]
  IC50: 3.98 nM

## Cc1nonc1C(=O)N[C@H](c1cn2ncc([C@H]3COCCN3C(=O)[C@@H]3CCC(F)(F)CO3)nc2n1)C(C1CC1)C1CC1 (single isomer, unassigned) [Example 6]
  IC50: 100 nM

## Cc1nonc1C(=O)N[C@H](c1cn2ncc([C@@H]3COCCN3C(=O)[C@@H]3CCC(F)(F)CO3)nc2n1)C1CCC(F)(F)CC1 (single isomer, unassigned) [Example 7]
  IC50: 6.31 nM

## Cc1nonc1C(=O)NC(c1cn2ncc(C3COCCN3C(=O)C3CCC(F)(F)CO3)nc2n1)C1CCC(F)(F)CC1 (single isomer, unassigned) [Example 8]
  IC50: 126 nM

## Cc1nonc1C(=O)N[C@H](c1cn2ncc([C@@H]3C[C@@](O)(C(F)(F)F)CCN3C(=O)C34CC(F)(C3)C4)nc2n1)C1CCC(F)(F)CC1 (single isomer, unassigned) [Example 9]
  IC50: 6.31 nM

## Cc1nonc1C(=O)N[C@H](c1cn2ncc([C@H]3C[C@](O)(C(F)(F)F)CCN3C(=O)C34CC(F)(C3)C4)nc2n1)C1CCC(F)(F)CC1 (single isomer, unassigned) [Example 10]
  IC50: 501 nM

## O=C(N[C@H](c1cn2ncc([C@@H]3C[C@@](O)(C(F)(F)F)CCN3C(=O)C34CC(F)(C3)C4)nc2n1)C1CCC(F)(F)CC1)C1(F)CC1 (single isomer, unassigned) [Example 11]
  IC50: 50.1 nM

## O=C(N[C@H](c1cn2ncc([C@H]3C[C@](O)(C(F)(F)F)CCN3C(=O)C34CC(F)(C3)C4)nc2n1)C1CCC(F)(F)CC1)C1(F)CC1 (single isomer, unassigned) [Example 12]
  IC50: 7940 nM

## Cc1nonc1C(=O)N[C@H](c1cn2ncc([C@@H]3C[C@@](O)(C(F)(F)F)CCN3C(=O)[C@@H]3CCC(F)(F)CO3)nc2n1)C1CCC(F)(F)CC1 (single isomer, unassigned) [Example 18]
  IC50: 2.51 nM

## Cc1nonc1C(=O)N[C@H](c1cn2ncc([C@H]3C[C@](O)(C(F)(F)F)CCN3C(=O)[C@@H]3CCC(F)(F)CO3)nc2n1)C1CCC(F)(F)CC1 (single isomer, unassigned) [Example 19]
  IC50: 100 nM

## O=C([C@@H]1CCC(F)(F)CO1)N1CC[C@](O)(C(F)(F)F)C[C@H]1c1cnn2cc([C@@H](NC(=O)C3(F)CC3)C3CCC(F)(F)CC3)nc2n1 (single isomer, unassigned) [Example 20]
  IC50: 15.8 nM

## O=C([C@@H]1CCC(F)(F)CO1)N1CC[C@@](O)(C(F)(F)F)C[C@@H]1c1cnn2cc([C@@H](NC(=O)C3(F)CC3)C3CCC(F)(F)CC3)nc2n1 (single isomer, unassigned) [Example 21]
  IC50: 398 nM

## Cc1nonc1C(=O)N[C@H](c1cn2ncc([C@@H]3C[C@@](O)(C(F)F)CCN3C(=O)[C@@H]3CCC(F)(F)CO3)nc2n1)C1CCC(F)(F)CC1 (single isomer, unassigned) [Example 22]
  IC50: 6.31 nM

## Cc1nonc1C(=O)N[C@H](c1cn2ncc([C@H]3C[C@](O)(C(F)F)CCN3C(=O)[C@@H]3CCC(F)(F)CO3)nc2n1)C1CCC(F)(F)CC1 (single isomer, unassigned) [Example 23]
  IC50: 158 nM

## Cc1nonc1C(=O)N[C@H](c1cn2ncc([C@@H]3COCCN3C(=O)[C@@H]3CCC(F)(F)CO3)nc2n1)[C@H]1CC[C@H](C(F)(F)F)CC1 (single isomer, unassigned) [Example 24]
  IC50: 10 nM

## Cc1nonc1C(=O)N[C@H](c1cn2ncc([C@@H]3COCCN3C(=O)[C@@H]3CCC(F)(F)CO3)nc2n1)[C@H]1CC[C@H](C(F)(F)F)CC1 (single isomer, unassigned) [Example 25]
  IC50: 316 nM

## Cc1nonc1C(=O)N[C@H](c1cn2ncc([C@@H]3C[C@@](O)(C(F)F)CCN3C(=O)C34CC(F)(C3)C4)nc2n1)C1CCC(F)(F)CC1 (single isomer, unassigned) [Example 26]
  IC50: 10 nM

## Cc1nonc1C(=O)N[C@H](c1cn2ncc([C@H]3C[C@](O)(C(F)F)CCN3C(=O)C34CC(F)(C3)C4)nc2n1)C1CCC(F)(F)CC1 (single isomer, unassigned) [Example 27]
  IC50: 251 nM

## Cc1nonc1C(=O)N[C@H](c1cn2ncc([C@@H]3C[C@](O)(C(F)F)CCN3C(=O)C34CC(F)(C3)C4)nc2n1)C1CCC(F)(F)CC1 (single isomer, unassigned) [Example 28]
  IC50: 39.8 nM

## Cc1nonc1C(=O)N[C@H](c1cn2ncc([C@H]3C[C@@](O)(C(F)F)CCN3C(=O)C34CC(F)(C3)C4)nc2n1)C1CCC(F)(F)CC1 (single isomer, unassigned) [Example 29]
  IC50: 631 nM

## Cc1nonc1C(=O)N[C@H](c1cn2ncc([C@@H]3C[C@](O)(C(F)F)CCN3C(=O)[C@@H]3CCC(F)(F)CO3)nc2n1)C1CCC(F)(F)CC1 (single isomer, unassigned) [Example 30]
  IC50: 12.6 nM

## Cc1nonc1C(=O)N[C@H](c1cn2ncc([C@H]3C[C@@](O)(C(F)F)CCN3C(=O)[C@@H]3CCC(F)(F)CO3)nc2n1)C1CCC(F)(F)CC1 (single isomer, unassigned) [Example 31]
  IC50: 15.8 nM

## Cc1nonc1C(=O)N[C@H](c1cn2ncc([C@@H]3C[C@](O)(C(F)(F)F)CCN3C(=O)C34CC(F)(C3)C4)nc2n1)C1CCC(F)(F)CC1 (single isomer, unassigned) [Example 32]
  IC50: 63.1 nM

## Cc1nonc1C(=O)N[C@H](c1cn2ncc([C@H]3C[C@@](O)(C(F)(F)F)CCN3C(=O)C34CC(F)(C3)C4)nc2n1)C1CCC(F)(F)CC1 (single isomer, unassigned) [Example 33]
  IC50: 126 nM

## Cc1nonc1C(=O)N[C@H](c1cn2ncc([C@@H]3C[C@](C)(O)CCN3C(=O)[C@@H]3CCC(F)(F)CO3)nc2n1)C1CCC(F)(F)CC1 (single isomer, unassigned) [Example 34]
  IC50: 3.98 nM

## Cc1nonc1C(=O)N[C@H](c1cn2ncc([C@H]3C[C@@](C)(O)CCN3C(=O)[C@@H]3CCC(F)(F)CO3)nc2n1)C1CCC(F)(F)CC1 (single isomer, unassigned) [Example 35]
  IC50: 126 nM

## Cc1nonc1C(=O)N[C@H](c1cn2ncc([C@@H]3C[C@](C)(O)CCN3C(=O)C34CC(F)(C3)C4)nc2n1)C1CCC(F)(F)CC1 (single isomer, unassigned) [Example 36]
  IC50: 12.6 nM

## Cc1nonc1C(=O)N[C@H](c1cn2ncc([C@H]3C[C@@](C)(O)CCN3C(=O)C34CC(F)(C3)C4)nc2n1)C1CCC(F)(F)CC1 (single isomer, unassigned) [Example 37]
  IC50: 794 nM

## Cc1nonc1C(=O)N[C@H](c1cn2ncc([C@@H]3C[C@@](C)(O)CCN3C(=O)[C@@H]3CCC(F)(F)CO3)nc2n1)C1CCC(F)(F)CC1 (single isomer, unassigned) [Example 38]
  IC50: 126 nM

## Cc1nonc1C(=O)N[C@H](c1cn2ncc([C@H]3C[C@](C)(O)CCN3C(=O)[C@@H]3CCC(F)(F)CO3)nc2n1)C1CCC(F)(F)CC1 (single isomer, unassigned) [Example 39]
  IC50: 5.01 nM
